In patent publication US20090012144A1 (priority 2000, published 2009):
Like-named read-outs stand apart in the source and are kept apart here.

Legend:
[1] = test system: Spodoptera exigua; assay: Spodoptera exigua test (cabbage leaves, dip); format: in vivo
Description: (§1) [table] To produce a suitable preparation of active compound, 1 part by weight of active compound is mixed with the stated amounts of solvent and emulsifier, and the concentrate is diluted with emulsifier-containing water to the desired concentration. Cabbage leaves (Brassica oleracea) are treated by being dipped into the preparation of active compound of the desired concentration and are populated with caterpillars of the army worm (Spodoptera exigua) while the leaves are still moist. After the desired period of time, the kill in % is determined. 100% means that all caterpillars have been killed; 0% means that none of the caterpillars have been killed.

[2] = log P determination by HPLC (reversed-phase C 18), EEC Directive 79/831 Annex V.A8; format: physicochemical
Description: The log P values given in the tables and Preparation Examples above are determined in accordance with EEC Directive 79/831 Annex V.A8 by HPLC (High Performance Liquid Chromatography) using a reversed-phase column (C 18). Temperature: 43° C. […]
Calibration was carried out using unbranched alkan-2-ones (having 3 to 16 carbon atoms) with known log P values (determination of the log P values by the retention times using linear interpolation between two successive […]).

[3] = test system: Plutella xylostella; assay: Plutella test (cabbage leaves, dip); format: in vivo
Description: as §1, with “diamond back moth (Plutella xylostella)” for “army worm (Spodoptera exigua)”

[4] = test system: Spodoptera frugiperda; assay: Spodoptera frugiperda test (cabbage leaves, dip); format: in vivo
Description: as §1, with “frugiperda)” for “exigua)”

[5] = reversed-phase C18 HPLC column, pH 2.3, HPLC, pH 2.3, 43° C., read-out: log P (pH 2.3)
[6] = HPLC, pH 2.3, 43° C., read-out: log P (pH 2.3)

In the case of Fc1cccc(F)c1C1=N[C@H](c2ccc(-c3ccc(OC(F)(F)C(F)F)cc3)cc2)CC1, the “Kill rate in % after 6 d” value ([1]; 1.6 ppm) is reported as 0%.

In the case of Fc1cccc(F)c1C1=N[C@@H](c2ccc(-c3ccc(OC(F)(F)F)cc3)cc2)CC1 [I-3, (2R)-5-(2,6-difluorophenyl)-2-[4′-(trifluoromethoxy)-1,1′-biphenyl-4-yl]-3,4-dihydro-2H-pyrrole], the chromatographic logP [2, 5] is reported as 4.08.

Oc1ccc(-c2ccc([C@H]3CCC(c4c(F)cccc4F)=N3)cc2)cc1 [I-9] gave a chromatographic logP [2, 6] of 1.93.

O=S(=O)(c1ccc(-c2ccc([C@H]3CCC(c4c(F)cccc4F)=N3)cc2)cc1)C(F)(F)F [I-11, (2R)-5-(2,6-difluorophenyl)-2-{4′-[(trifluoromethyl)sulphonyl]-1,1′-biphenyl-4-yl}-3,4-dihydro-2H-pyrrole] gave a chromatographic logP [2, 5] of 3.92 and a chromatographic logP ([2]; reversed-phase C18 HPLC column, pH 2.3, pH not given, read-out: log p/m.p.: log P) of 3.92.

In the case of Fc1cccc(F)c1C1=N[C@@H](c2ccc(Br)cc2)CC1 [I-15, (2R)-2-(4-bromophenyl)-5-(2,6-difluorophenyl)-3,4-dihydro-2H-pyrrole], the chromatographic logP [2, 5] is reported as 2.74.

With N#Cc1ccc(-c2ccc([C@H]3CCC(c4c(F)cccc4F)=N3)cc2)cc1 [I-17] the chromatographic logP [2, 5] was 2.85.

For CC1(C)OB(c2ccc([C@H]3CCC(c4c(F)cccc4F)=N3)cc2)OC1(C)C [I-b-1, (2R)-5-(2,6-difluorophenyl)-2-[4-(4,4,5,5-tetramethyl-1,3,2-dioxaborolan-2-yl)phenyl]-3,4-dihydro-2H-pyrrole], the chromatographic logP ([2]; reversed-phase C18 HPLC column, pH 7, HPLC, pH 7, read-out: log P (pH 7)) was 4.47.

In the case of CC(C)(C)OC(=O)N[C@H](CCC(=O)c1c(F)cccc1F)c1ccc(-c2ccc(OC(F)(F)F)cc2)cc1 [IV-1, tert-butyl (1R)-4-(2,6-difluorophenyl)-4-oxo-1-[4′-(trifluoromethoxy)-1,1′-biphenyl-4-yl]butylcarbamate], the chromatographic logP [2, 6] is reported as 5.18.

CC(C)(C)OC(=O)N[C@H](CCC(=O)c1c(F)cccc1F)c1ccc(Br)cc1 [IV-2, tert-butyl (1R)-1-(4-bromophenyl)-4-(2,6-difluorophenyl)-4-oxobutylcarbamate] showed a chromatographic logP [2, 6] of 4.22.

In the case of CC(C)(C)OC(=O)N[C@H](CCC(=O)c1c(F)cccc1F)c1ccc(-c2ccc(C#N)cc2)cc1 [IV-4], the chromatographic logP [2, 6] is reported as 4.1.

For O=C1CC[C@@]2(c3ccc(-c4ccc(OC(F)(F)F)cc4)cc3)OC[C@H](c3ccccc3)N12 [IX-1, (3S,7aS)-3-Phenyl-7a-[4′-(trifluoromethoxy)-1,1′-biphenyl-4-yl]tetrahydropyrrolo-[2,1-b][1,3]oxazol-5(6H)-one], the chromatographic logP [2, 5] was 4.55.

For O=C1CC[C@@]2(c3ccc(Br)cc3)OC[C@H](c3ccccc3)N12 [IX-2, (3S,7aS)-7a-(4-Bromophenyl)-3-phenyltetrahydropyrrolo[2,1-b][1,3],oxazol-5(6H)-one], the “log P (pH 2.3)” value ([2]; HPLC, pH 2.3, 43° C.) was “log P (pH 2.3) = 3.36 (purity 92.3%)”.

CC(C)(C)OC(=O)N1C(=O)CC[C@@H]1c1ccc(-c2ccc(OC(F)(F)F)cc2)cc1 [V-1, tert-butyl (5R)-2-oxo-5-[4′-(trifluoromethoxy)-1,1′-biphenyl-4-yl]-1-pyrrolidine carboxylate] showed a chromatographic logP [2, 6] of 4.32.

Compound CC(C)(C)OC(=O)N1C(=O)CC[C@@H]1c1ccc(Br)cc1 [V-2, tert-butyl (2R)-2-(4-bromophenyl)-5-oxo-1-pyrrolidinecarboxylate] has a chromatographic logP [2, 5] of 3.04.

With CC(C)(C)OC(=O)N1C(=O)CC[C@@H]1c1ccc(-c2ccc(C#N)cc2)cc1 [V-4] the chromatographic logP [2, 5] was 3.02.

With O=C1CC[C@H](c2ccc(-c3ccc(OC(F)(F)F)cc3)cc2)N1 [VII-1, (5R)-5-[4′-(Trifluoromethoxy)-1,1′-biphenyl-4-yl]-2-pyrrolidinone] the chromatographic logP [2, 5] was 2.95.

For O=C1CC[C@H](c2ccc(Br)cc2)N1 [VII-2, (5R)-5-(4-Bromophenyl)-2-pyrrolidinone], the chromatographic logP [2, 5] was 3.54.

For COC(=O)CCC(=O)c1ccc(-c2ccc(OC(F)(F)F)cc2)cc1 [VIII-a-1, Methyl-4-oxo-4-[4′-(trifluoromethoxy)-1,1′-biphenyl-4-yl]butanoate], the chromatographic logP [2, 5] was 4.01.

Work on O=C1CC[C@H](c2ccc(-c3ccc(OC(F)(F)F)cc3)cc2)N1[C@H](CO)c1ccccc1 [X-1, (5R)-1-[(1S)-2-Hydroxy-1-phenylethyl]-5-[4′-(trifluoromethoxy)-1,1′-biphenyl-4-yl]-2-pyrrolidinone] yielded a chromatographic logP [2, 5] of 3.8.

O=C1CC[C@H](c2ccc(Br)cc2)N1[C@H](CO)c1ccccc1 [X-2, (5R)-5-(4-Bromophenyl)-1-[(1S)-2-hydroxy-1-phenylethyl]-2-pyrrolidinone] showed a chromatographic logP [2, 5] of 2.58.

O=C1CC[C@H](c2ccc(-c3ccc(OC(F)(F)F)cc3)cc2)N1[C@H](CCl)c1ccccc1 [XI-1, (5R)-1-[(1S)-2-Chloro-1-phenylethyl]-5-[4′-(trifluoromethoxy)-1,1′-biphenyl-4-yl]-2-pyrrolidinone] gave a chromatographic logP [2, 5] of 4.78.

Work on O=C1CC[C@H](c2ccc(Br)cc2)N1[C@H](CCl)c1ccccc1 [XI-2, (5R)-5-(4-Bromophenyl)-1-[(1S)-2-chloro-1-phenylethyl]-2-pyrrolidinone] yielded a chromatographic logP [2, 5] of 3.61.

Compound C=C(c1ccccc1)N1C(=O)CC[C@@H]1c1ccc(-c2ccc(OC(F)(F)F)cc2)cc1 [XII-1, (5R)-1-(1-Phenylvinyl)-5-[4′-(trifluoromethoxy)-1,1′-biphenyl-4-yl]-2-pyrrolidinone] has a chromatographic logP [2, 5] of 4.35.

In the case of C=C(c1ccccc1)N1C(=O)CC[C@@H]1c1ccc(Br)cc1 [XII-2, (5R)-5-(4-Bromophenyl)-1-(1-phenylvinyl)-2-pyrrolidinone], the chromatographic logP [2, 5] is reported as 3.18.

With C=CCNC(=O)CCC(=O)c1ccc(-c2ccc(OC(F)(F)F)cc2)cc1 [XV-1, N-Allyl-4-oxo-4-[4′-(trifluoromethoxy)-1,1′-biphenyl-4-yl]butanamide] the “log P (pH 2.3)” value ([2]; HPLC, pH 2.3, 43° C.) was 3.42 and the chromatographic logP [2, 5] was 3.34.

In the case of C=CCNC(=O)CC[C@H](O)c1ccc(-c2ccc(OC(F)(F)F)cc2)cc1 [XVI-1, (4S)—N-Allyl-4-hydroxy-4-[4′-(trifluoromethoxy)-1,1′-biphenyl-4-yl]butanamide], the chromatographic logP [2, 5] is reported as 2.99.

C=CCN1C(=O)CC[C@@H]1c1ccc(-c2ccc(OC(F)(F)F)cc2)cc1 [XVII-1, (5R)-1-Allyl-5-[4′-(trifluoromethoxy)-1,1′-biphenyl-4-yl]-2-pyrrolidinone] gave a chromatographic logP [2, 5] of 3.88.

In the case of Fc1cccc(F)c1C1=NC(c2ccc(-c3ccc(OC(F)(F)F)cc3)cc2)CC1 (stereo not shown) [drawing 71], the “Kill rate in % after 6 d” value ([3]; 0.01 ppm) is reported as 0%.

For Fc1cccc(F)c1C1=N[C@@H](c2ccc(-c3ccc(OC(F)(F)F)cc3)cc2)CC1 [drawing 72], the “Kill rate in % after 6 d” value ([3]; 0.01 ppm) was 100%.

In the case of Fc1cccc(F)c1C1=N[C@H](c2ccc(-c3ccc(OC(F)(F)F)cc3)cc2)CC1 [drawing 73], the “Kill rate in % after 6 d” value ([3]; 1.6 ppm) is reported as 0%.

For Fc1cccc(F)c1C1=NC(c2ccc(-c3ccc(SC(F)(F)F)cc3)cc2)CC1 (stereo not shown) [drawing 74], the “Kill rate in % after 6 d” value ([3]; 0.0128 ppm) was 10%.

In the case of Fc1cccc(F)c1C1=N[C@@H](c2ccc(-c3ccc(SC(F)(F)F)cc3)cc2)CC1 [drawing 75], the “Kill rate in % after 6 d” value ([3]; 0.0128 ppm) is reported as 45%.

In the case of Fc1cccc(F)c1C1=N[C@H](c2ccc(-c3ccc(SC(F)(F)F)cc3)cc2)CC1 [drawing 76], the “Kill rate in % after 6 d” value ([3]; 1.6 ppm) is reported as 5%.

In the case of Fc1cccc(F)c1C1=NC(c2ccc(-c3ccc(OC(F)(F)F)cc3)cc2)CC1 (stereo not shown) [drawing 80], the “Kill rate in % after 6 d” value ([1]; 0.04 ppm) is reported as 55%.

With Fc1cccc(F)c1C1=N[C@@H](c2ccc(-c3ccc(OC(F)(F)F)cc3)cc2)CC1 [drawing 81] the “Kill rate in % after 6 d” value ([1]; 0.04 ppm) was 100%.

In the case of Fc1cccc(F)c1C1=N[C@H](c2ccc(-c3ccc(OC(F)(F)F)cc3)cc2)CC1 [drawing 82], the “Kill rate in % after 6 d” value ([1]; 8 ppm) is reported as 0%.

In the case of Fc1cccc(F)c1C1=N[C@@H](c2ccc(-c3ccc(SC(F)(F)F)cc3)cc2)CC1 [drawing 83], the “Kill rate in % after 6 d” value ([1]; 1.6 ppm) is reported as 100%.

For Fc1cccc(F)c1C1=N[C@H](c2ccc(-c3ccc(SC(F)(F)F)cc3)cc2)CC1 [drawing 84], the “Kill rate in % after 6 d” value ([1]; 1.6 ppm) was 0%.

In the case of Fc1cccc(F)c1C1=NC(c2ccc(-c3ccc(OC(F)(F)F)cc3)cc2)CC1 (stereo not shown) [drawing 88], the “Kill rate in % after 6 d” value ([4]; 0.02 ppm) is reported as 25%.

In the case of Fc1cccc(F)c1C1=N[C@@H](c2ccc(-c3ccc(OC(F)(F)F)cc3)cc2)CC1 [drawing 89], the “Kill rate in % after 6 d” value ([4]; 0.02 ppm) is reported as 100%.

With Fc1cccc(F)c1C1=N[C@H](c2ccc(-c3ccc(OC(F)(F)F)cc3)cc2)CC1 [drawing 90] the “Kill rate in % after 6 d” value ([4]; 8 ppm) was 0%.

With Fc1cccc(F)c1C1=NC(c2ccc(-c3ccc(SC(F)(F)F)cc3)cc2)CC1 (stereo not shown) [drawing 91] the “Kill rate in % after 6 d” value ([4]; 0.0128 ppm) was 20%.

With Fc1cccc(F)c1C1=N[C@@H](c2ccc(-c3ccc(SC(F)(F)F)cc3)cc2)CC1 [drawing 92] the “Kill rate in % after 6 d” value ([4]; 0.0128 ppm) was 65%.

In the case of Fc1cccc(F)c1C1=N[C@H](c2ccc(-c3ccc(SC(F)(F)F)cc3)cc2)CC1 [drawing 93], the “Kill rate in % after 6 d” value ([4]; 1.6 ppm) is reported as 10%.
